Laboratory results as given in patent US10611731B2, “5-methyl-6-phenyl-4,5-dihydro-2H-pyridazin-3-one derivative” (OTSUKA PHARMACEUTICAL CO., LTD., priority 2016, dated 2020).

What follows are compounds tested on human childhood brain tumor cell lines (PFSK-1) (assay: Growth inhibitory activity against PFSK-1 cells (WST-8, Cell Counting Kit-8)). Conditions: Homo sapiens, 72 h, 3 days incubation with test compound, WST-8 OD 450/630 nm, read-out: IC50 (concentration inhibiting 50% of the cell growth).
Assay type: cell-based
Protocol: The growth inhibitory activity against human childhood brain tumor cell lines (PFSK-1) was measured with WST-8 reagent [2-(2-methoxy-4-nitrophenyl)-3-(4-nitrophenyl)-5-(2,4-disulfophenyl)-2H-tetrazolium monosodium salt, Cell Counting Kit-8™], according to the method described in Tominaga, H. et al., Anal. Commun., 1999, 36, 47-50. Briefly, PFSK-1 was seeded in 96-well microplate at 100 μL/well with Roswell Park Memorial Institute (RPMI) 1640 medium containing 10% fetal bovine serum (FBS), and the cells were incubated in the presence of 5% carbon dioxide (CO2) at 37° C. for 24 hours. 50 μL of each test compound diluted with the medium was added to each well, and then the cells were incubated further for 3 days. After the incubation, 15 μL of Cell Counting Kit-8™ was added to each well, and the cells were incubated for one and half hours. Then, optical density (OD) values at measurement wavelength 450 nm and reference wavelength 630 nm were measured and the difference thereof was calculated. From the calculated difference, the OD value difference (at measurement wavelength 450 nm and reference wavelength 630 nm) of the control well which includes no cell was subtracted to afford cell-growth activity in each well.
The cell growth inhibitory activity of each test compound was calculated by comparing the cell-growth activity with each test compound to the cell-growth activity without any test compound (control), and each IC50 (nM) which is the concentration inhibiting 50% of the cell growth was calculated.

Structure (SMILES) | IC50 [nM]
CC1CC(=O)NN=C1c1cc(F)c(OCC(O)(C(F)(F)F)C(F)(F)F)c(Cl)c1 (centres unmarked) [Example 37, 6-{3-Chloro-5-fluoro-4-[3,3,3-trifluoro-2-hydroxy-2-(trifluoromethyl)propoxy]phenyl}-5-methyl-4,5-dihydro-2H-pyridazin-3-one] | 8.8
CC1CC(=O)NN=C1c1cc(F)c(OCC(O)(C(F)(F)F)C(F)(F)F)c(Br)c1 (centres unmarked) [Example 38, 6-{3-Bromo-5-fluoro-4-[3,3,3-trifluoro-2-hydroxy-2-(trifluoromethyl)propoxy]phenyl}-5-methyl-4,5-dihydro-2H-pyridazin-3-one] | 5.2
Cc1cc(C2=NNC(=O)CC2C)cc(C)c1OCC1(O)CC1 (centres unmarked) [Example 43, 6-{4-[(1-Hydroxycyclopropyl)methoxy]-3,5-dimethylphenyl}-5-methyl-4,5-dihydro-2H-pyridazin-3-one] | 4.3
Cc1cc(C2=NNC(=O)CC2C)cc(F)c1OCC1(O)CC1 (centres unmarked) [Example 45, 6-{3-Fluoro-4-[(1-hydroxycyclopropyl)methoxy]-5-methylphenyl}-5-methyl-4,5-dihydro-2H-pyridazin-3-one] | 7.2
Cc1c(OCC2(O)CC2)ccc(C2=NNC(=O)CC2C)c1F (centres unmarked) [Example 46, 6-{2-Fluoro-4-[(1-hydroxycyclopropyl)methoxy]-3-methylphenyl}-5-methyl-4,5-dihydro-2H-pyridazin-3-one] | 3.9
CC(O)COc1c(F)cc(C2=NNC(=O)CC2C)cc1Br (centres unmarked) [Example 50, 6-[3-Bromo-5-fluoro-4-(2-hydroxypropoxy)phenyl]-5-methyl-4,5-dihydro-2H-pyridazin-3-one] | 2.9
Cc1cc(C2=NNC(=O)CC2C)cc(C)c1OCC(C)O (centres unmarked) [Example 51, 6-[4-(2-Hydroxypropoxy)-3,5-dimethylphenyl]-5-methyl-4,5-dihydro-2H-pyridazin-3-one] | 5.5
CC(O)COc1c(F)cc(C2=NNC(=O)CC2C)cc1Cl (centres unmarked) [Example 52, 6-[3-Chloro-5-fluoro-4-(2-hydroxypropoxy)phenyl]-5-methyl-4,5-dihydro-2H-pyridazin-3-one] | 3.8
Cc1cc(C2=NNC(=O)CC2C)cc(F)c1OCC(C)O (centres unmarked) [Example 56, 6-[3-Fluoro-4-(2-hydroxypropoxy)-5-methylphenyl]-5-methyl-4,5-dihydro-2H-pyridazin-3-one] | 7.6
Cc1c(OCC(C)O)ccc(C2=NNC(=O)CC2C)c1F (centres unmarked) [Example 58, 6-[2-Fluoro-4-(2-hydroxypropoxy)-3-methylphenyl]-5-methyl-4,5-dihydro-2H-pyridazin-3-one] | 2.8
CCc1c(OCC(C)O)ccc(C2=NNC(=O)CC2C)c1F (centres unmarked) [Example 60, 6-[3-Ethyl-2-fluoro-4-(2-hydroxypropoxy)phenyl]-5-methyl-4,5-dihydro-2H-pyridazin-3-one] | 4.7
CCC(O)COc1ccc(C2=NNC(=O)CC2C)c(F)c1F (centres unmarked) [Example 61, 6-[2,3-Difluoro-4-(2-hydroxybutoxy)phenyl]-5-methyl-4,5-dihydro-2H-pyridazin-3-one] | 4.7
CCC(O)COc1c(F)cc(C2=NNC(=O)CC2C)cc1Cl (centres unmarked) [Example 62, 6-[3-Chloro-5-fluoro-4-(2-hydroxybutoxy)phenyl]-5-methyl-4,5-dihydro-2H-pyridazin-3-one] | 8.9
CCC(O)COc1c(Cl)cc(C2=NNC(=O)CC2C)cc1Cl (centres unmarked) [Example 63, 6-[3,5-Dichloro-4-(2-hydroxybutoxy)phenyl]-5-methyl-4,5-dihydro-2H-pyridazin-3-one] | 5
CCC(O)COc1ccc(C2=NNC(=O)CC2C)c(F)c1Cl (centres unmarked) [Example 64, 6-[3-chloro-2-fluoro-4-(2-hydroxybutoxy)phenyl]-5-methyl-4,5-dihydro-2H-pyridazin-3-one] | 2.1
CCC(O)COc1c(C)cc(C2=NNC(=O)CC2C)cc1Cl (centres unmarked) [Example 65, 6-[3-Chloro-4-(2-hydroxybutoxy)-5-methylphenyl]-5-methyl-4,5-dihydro-2H-pyridazin-3-one] | 4.3
CCC(O)COc1c(Cl)cc(C2=NNC(=O)CC2C)cc1Br (centres unmarked) [Example 66, 6-[3-Bromo-5-chloro-4-(2-hydroxybutoxy)phenyl]-5-methyl-4,5-dihydro-2H-pyridazin-3-one] | 4.1
C=Cc1c(OCC(O)CC)ccc(C2=NNC(=O)CC2C)c1F (centres unmarked) [Example 67, 6-[2-Fluoro-4-(2-hydroxybutoxy)-3-vinylphenyl]-5-methyl-4,5-dihydro-2H-pyridazin-3-one] | 3.6
CC1CC(=O)NN=C1c1ccc(OCC(C)(C)CO)c(Br)c1F (centres unmarked) [Example 70, 6-[3-Bromo-2-fluoro-4-(3-hydroxy-2,2-dimethylpropoxy)phenyl]-5-methyl-4,5-dihydro-2H-pyridazin-3-one] | 5.3
Cc1cc(C2=NNC(=O)CC2C)cc(C)c1OCC(C)(C)CO (centres unmarked) [Example 71, 6-[4-(3-Hydroxy-2,2-dimethylpropoxy)-3,5-dimethylphenyl]-5-methyl-4,5-dihydro-2H-pyridazin-3-one] | 3.9
Cc1c(OCC(C)O)ccc(C2=NNC(=O)CC2C)c1O (centres unmarked) [Example 74, 6-[2-hydroxy-4-(2-hydroxypropoxy)-3-methylphenyl]-5-methyl-4,5-dihydro-2H-pyridazin-3-one] | 4.1
CC(O)COc1ccc(C2=NNC(=O)CC2C)c(O)c1Cl (centres unmarked) [Example 75, 6-[3-Chloro-2-hydroxy-4-(2-hydroxypropoxy)phenyl]-5-methyl-4,5-dihydro-2H-pyridazin-3-one] | 3.2
Cc1cc(C2=NNC(=O)CC2C)cc(Cl)c1OCCCCO (centres unmarked) [Example 79, 6-[3-Chloro-4-(4-hydroxybutoxy)-5-methylphenyl]-5-methyl-4,5-dihydro-2H-pyridazin-3-one] | 5.6

Results, then the compound that gave them:

IC50 [nM] | Structure (SMILES)
1 | Cc1cc(C2=NNC(=O)CC2C)c(F)c(Cl)c1OCC(C)(C)O (centres unmarked) [Example 36, 6-[3-chloro-2-fluoro-4-(2-hydroxy-2-methylpropoxy)-5-methylphenyl]-5-methyl-4,5-dihydro-2H-pyridazin-3-one]
2.8 | Cc1cc(C2=NNC(=O)CC2C)cc(Cl)c1OC[C@H](C)O (stereo partly drawn) [Example 39, 6-{3-Chloro-4-[(2S)-2-hydroxypropoxy]-5-methylphenyl}-5-methyl-4,5-dihydro-2H-pyridazin-3-one]
1.6 | Cc1cc(C2=NNC(=O)CC2C)cc(Cl)c1OC[C@@H](C)O (stereo partly drawn) [Example 40, 6-{3-chloro-4-[(2R)-2-hydroxypropoxy]-5-methylphenyl}-5-methyl-4,5-dihydro-2H-pyridazin-3-one]
1 | Cc1cc(C2=NNC(=O)CC2C)cc(Cl)c1OCC1(O)CC1 (centres unmarked) [Example 44, 6-{3-chloro-4-[(1-hydroxycyclopropyl)methoxy]-5-methylphenyl}-5-methyl-4,5-dihydro-2H-pyridazin-3-one]
2.4 | CC1CC(=O)NN=C1c1ccc(OCC2(O)CC2)c(Cl)c1F (centres unmarked) [Example 47, 6-{3-chloro-2-fluoro-4-[(1-hydroxycyclopropyl)methoxy]phenyl}-5-methyl-4,5-dihydro-2H-pyridazin-3-one]
0.9 | CC(O)COc1ccc(C2=NNC(=O)CC2C)c(F)c1Br (centres unmarked) [Example 48, 6-[3-bromo-2-fluoro-4-(2-hydroxypropoxy)phenyl]-5-methyl-4,5-dihydro-2H-pyridazin-3-one]
2.8 | CC(O)COc1ccc(C2=NNC(=O)CC2C)c(F)c1F (centres unmarked) [Example 49, 6-[2,3-Difluoro-4-(2-hydroxypropoxy)phenyl]-5-methyl-4,5-dihydro-2H-pyridazin-3-one]
1.9 | CC(O)COc1c(Cl)cc(C2=NNC(=O)CC2C)cc1Cl (centres unmarked) [Example 53, 6-[3,5-dichloro-4-(2-hydroxypropoxy)phenyl]-5-methyl-4,5-dihydro-2H-pyridazin-3-one]
0.5 | CC(O)COc1ccc(C2=NNC(=O)CC2C)c(F)c1Cl (centres unmarked) [Example 54, 6-[3-chloro-2-fluoro-4-(2-hydroxypropoxy)phenyl]-5-methyl-4,5-dihydro-2H-pyridazin-3-one]
1.9 | Cc1cc(C2=NNC(=O)CC2C)cc(Cl)c1OCC(C)O (centres unmarked) [Example 55, 6-[3-chloro-4-(2-hydroxypropoxy)-5-methylphenyl]-5-methyl-4,5-dihydro-2H-pyridazin-3-one]
< 1 | CC(O)COc1c(Cl)cc(C2=NNC(=O)CC2C)cc1Br (centres unmarked) [Example 57, 6-[3-bromo-5-chloro-4-(2-hydroxypropoxy)phenyl]-5-methyl-4,5-dihydro-2H-pyridazin-3-one]
2.2 | C=Cc1c(OCC(C)O)ccc(C2=NNC(=O)CC2C)c1F (centres unmarked) [Example 59, 6-[2-fluoro-4-(2-hydroxypropoxy)-3-vinylphenyl]-5-methyl-4,5-dihydro-2H-pyridazin-3-one]
1.2 | CC1CC(=O)NN=C1c1cc(F)c(OCC(C)(C)CO)c(Br)c1 (centres unmarked) [Example 69, 6-[3-bromo-5-fluoro-4-(3-hydroxy-2,2-dimethylpropoxy)phenyl]-5-methyl-4,5-dihydro-2H-pyridazin-3-one]
0.9 | Cc1cc(C2=NNC(=O)CC2C)cc(Cl)c1OCC(C)(C)CO (centres unmarked) [Example 72, 6-[3-chloro-4-(3-hydroxy-2,2-dimethylpropoxy)-5-methylphenyl]-5-methyl-4,5-dihydro-2H-pyridazin-3-one]
2.7 | CC1CC(=O)NN=C1c1ccc(OC/C=C\CO)c(Cl)c1F (centres unmarked) [Example 76, 6-{3-chloro-2-fluoro-4-[(Z)-4-hydroxy-2-butenyloxy]phenyl}-5-methyl-4,5-dihydro-2H-pyridazin-3-one]
